The results in this text go back to article PMC6930570, “2-Arylidene-1-indandiones as Pleiotropic Agents with Antioxidant and Inhibitory Enzymes Activities” (Molecules, 2019).

What is called inhibition is the percentage by which the read-out fell short of the control.

For experiment [1], the target named is T1, bovine thrombin (Bos taurus, UniProt P00735).
T1 construct: purchased Sigma Chemical, Co. (St. Louis)
In words: In vitro inhibition of thrombin. It counts as biochemical. The conditions noted are these: substrate tosyl-Gly-Pro-Arg-pNA, no = no action under the experimental conditions, read-out: TH% 100 µM (thrombin inhibition). As to the method: It is well known that indandione derivatives exert their anticoagulant activity indirectly by inhibiting prothrombin synthesis in the liver. […] Derivatives 1, 2, 5, 8, 9, 10, and 12 were tested in vitro as possible thrombin inhibitors. Among the tested derivatives compound 8 presented 100% inhibition followed by compounds […] and 10.
As a substrate tosyl-Gly-Pro-Arg-pNA acetate salt was used at 1 mM final concentration. Compounds were dissolved at a final concentration of […] in a Tris-buffer (0.05 M Tris, 0.154 M NaCl, ethanol 5%, pH = 8.0). Three minutes after the addition of bovine thrombin (2.5 unit/mg), the reaction was ended by adding 1 mL acetic acid 50%. The absorption of the released p-nitro-aniline was measured at 405 nm (Table 3). Warfarin and Inogatran were used as reference compounds.

A short description of experiment [2]: Superoxide anion radical scavenging activity (PMS/NADPH/NBT). It counts as biochemical. The conditions noted are these: 100 μM (stated for compound 3). As to the method:
The compounds have been tested to scavenge superoxide anion radicals. However, no results were recorded under the experimental conditions.
The superoxide anion producing system was set up by mixing PMS, NADPH, and air oxygen. The production of superoxide anion was estimated by the nitrobluetetrazole NBT method. The reaction mixture containing compounds, 3 μM PMS, 78 μM NADPH, and 25 μM NBT in […] phosphate buffer pH 7.4 was incubated for 2 min at room temperature and the absorption was measured at 560 nm against a blank containing PMS. The tested compounds were pre-incubated for 2 min before adding NADPH. Caffeic acid was used as an appropriate standard (76%).

Molecules are shown by their SMILES.

With `N=C(N)NCCCNC(=O)[C@@H]1CCCCN1C(=O)[C@@H](CC1CCCCC1)NCC(=O)O` [Inogatran, reference compound], the inhibition at 100 µM in experiment [1] came to 98%.

For the compound `O=C(O)/C=C/c1ccc(O)c(O)c1` [Caffeic acid, reference compound], the “superoxide anion scavenging activity” value in experiment [2] was 76%.
